Laboratory results taken from US20230278954A1, “BRANCHED LIPID COMPOUDS” (priority 2020, published 2023).
pEC50: −log10 of the molar value. Values joined by “and” are separate entries in the source; they are usually repeats but may differ in a detail not shown here. Equal values may be shown once.

How the values were obtained:
[1] = biological target: T1, human TLR2 (Homo sapiens, UniProt O60603); experiment: Activation of human TLR2 III: HEK-Blue hTLR2 dose response (SEAP reporter); type: cell-based; settings: for optical density (650 nm): screenings 1-3; for stimulatory / agonist activity for hTLR2 (in words) / fold induction at 120 fg/mL / fold induction at 490 fg/mL / fold induction at 1.95 pg/mL / fold induction at 7.81 pg/mL / fold induction at 31.25 pg/mL / fold induction at 0.000125 µg/mL / fold induction at 0.0005 µg/mL: HEK-Blue hTLR2; for fold induction at 120 fg/mL / fold induction at 490 fg/mL / fold induction at 1.95 pg/mL / fold induction at 7.81 pg/mL / fold induction at 31.25 pg/mL / fold induction at 0.000125 µg/mL / fold induction at 0.0005 µg/mL: read-out: Fold Induction (ratio of average induced value to average non-induced value); for pEC50: agonism of hTLR2, HEK-Blue hTLR2
T1 construct: expressed in transfected cells; host or cells: HEK-Blue hTLR2 cells
T1 sequence (O60603 21-784): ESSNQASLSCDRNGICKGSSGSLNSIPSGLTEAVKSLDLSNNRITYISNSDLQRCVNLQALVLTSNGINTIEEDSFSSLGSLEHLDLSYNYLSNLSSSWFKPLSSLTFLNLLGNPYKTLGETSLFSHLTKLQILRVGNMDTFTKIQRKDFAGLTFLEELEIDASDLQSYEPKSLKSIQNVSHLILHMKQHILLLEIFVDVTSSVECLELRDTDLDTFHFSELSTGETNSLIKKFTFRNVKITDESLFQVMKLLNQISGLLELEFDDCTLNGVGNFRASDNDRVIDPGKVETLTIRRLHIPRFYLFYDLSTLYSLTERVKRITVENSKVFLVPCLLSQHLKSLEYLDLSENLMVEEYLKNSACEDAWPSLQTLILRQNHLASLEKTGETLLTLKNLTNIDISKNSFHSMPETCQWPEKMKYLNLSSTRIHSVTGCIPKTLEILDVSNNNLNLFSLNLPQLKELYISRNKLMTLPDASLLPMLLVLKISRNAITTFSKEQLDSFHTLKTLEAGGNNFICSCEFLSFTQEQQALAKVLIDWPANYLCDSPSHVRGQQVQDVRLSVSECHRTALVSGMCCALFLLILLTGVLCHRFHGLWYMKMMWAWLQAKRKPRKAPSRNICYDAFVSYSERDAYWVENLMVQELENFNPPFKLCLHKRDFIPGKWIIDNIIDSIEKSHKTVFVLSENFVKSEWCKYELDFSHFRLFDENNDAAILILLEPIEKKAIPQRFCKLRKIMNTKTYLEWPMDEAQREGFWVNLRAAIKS
T1 sequence (Q9Y2C9 32-796 partner): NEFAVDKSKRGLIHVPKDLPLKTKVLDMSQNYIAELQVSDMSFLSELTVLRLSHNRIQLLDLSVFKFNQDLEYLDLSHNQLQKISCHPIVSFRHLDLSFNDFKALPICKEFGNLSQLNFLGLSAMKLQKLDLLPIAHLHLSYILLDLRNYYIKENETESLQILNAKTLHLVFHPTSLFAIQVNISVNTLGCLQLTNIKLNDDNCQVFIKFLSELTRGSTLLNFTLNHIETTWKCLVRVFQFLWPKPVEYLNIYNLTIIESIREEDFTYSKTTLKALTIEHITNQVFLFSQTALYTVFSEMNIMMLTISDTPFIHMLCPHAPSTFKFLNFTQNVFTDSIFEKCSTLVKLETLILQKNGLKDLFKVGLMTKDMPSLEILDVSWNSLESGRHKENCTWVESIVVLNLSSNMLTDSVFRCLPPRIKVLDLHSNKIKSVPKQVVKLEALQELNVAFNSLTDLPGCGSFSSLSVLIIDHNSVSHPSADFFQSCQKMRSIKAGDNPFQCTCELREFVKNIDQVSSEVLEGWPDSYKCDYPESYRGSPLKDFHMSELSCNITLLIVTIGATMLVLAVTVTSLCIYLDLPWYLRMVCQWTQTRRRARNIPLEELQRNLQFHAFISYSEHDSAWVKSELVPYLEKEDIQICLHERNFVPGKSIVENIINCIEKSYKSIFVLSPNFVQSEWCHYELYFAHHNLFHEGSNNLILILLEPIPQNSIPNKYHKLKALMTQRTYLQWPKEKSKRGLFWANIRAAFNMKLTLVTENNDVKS
Experimental: (§1) Toll-Like Receptor (TLR) stimulation is tested by assessing NF-KB activation in the TLR expressing cell lines. HEK-Blue h/mTLR2 cells have been stably transfected with human or mouse TLR2 and CD14. The activity of the test articles are tested on human and mouse TLR2, as potential agonists. The test articles are evaluated at seven concentrations and compared to control ligands (see list below). These steps are performed in triplicate.
(§2) A 5 µg/mL working stock was then prepared for each compound from the 20 µg/mL dilution in sterile PBS. Starting from the 5 µg/mL working stock, a series of six 1:4 serial dilutions were made by mixing 100 µL of the previous highest dilution with 300 µL sterile PBS.
(§3) The secreted embryonic alkaline phosphatase (SEAP) reporter is under the control of a promoter inducible by the transcription factor NF-κB. This reporter gene allows the monitoring of signaling through the TLR, based on the activation of NF-κB. In a 96-well plate (200 µL total volume) containing the appropriate cells (50,000 - 75,000 cells/well), 20 µL of the test article or the positive control ligand (HKLC) is added to the wells. The media added to the wells is designed for the detection of NF-κB induced SEAP expression. After a 16-24-hour incubation the optical density (OD) is read at 650 nm on a Molecular Devices SpectraMax 340PC absorbance detector.

[2] = Stability III: accelerated aging at 40° C., 3 or 6 weeks, HPLC recovery; type: physicochemical
Experimental: Recovery of the target compound was assessed by HPLC, and the values as a percentage of the reference sample are reported in Table 14 and in FIG. 5.

[3] = test system: HEK-Blue Null1 cells; experiment: TLR- control cell line HEK-Blue Null1 (control for human TLR2); type: cell-based
Experimental: as §3

[4] = biological target: T2, mouse TLR2 (Mus musculus, UniProt Q9QUN7); experiment: HEK-Blue mTLR2 dose response (SEAP reporter); type: cell-based
T2 construct: expressed in transfected cells; host or cells: HEK-Blue mTLR2 cells
T2 sequence (Q9QUN7 25-784): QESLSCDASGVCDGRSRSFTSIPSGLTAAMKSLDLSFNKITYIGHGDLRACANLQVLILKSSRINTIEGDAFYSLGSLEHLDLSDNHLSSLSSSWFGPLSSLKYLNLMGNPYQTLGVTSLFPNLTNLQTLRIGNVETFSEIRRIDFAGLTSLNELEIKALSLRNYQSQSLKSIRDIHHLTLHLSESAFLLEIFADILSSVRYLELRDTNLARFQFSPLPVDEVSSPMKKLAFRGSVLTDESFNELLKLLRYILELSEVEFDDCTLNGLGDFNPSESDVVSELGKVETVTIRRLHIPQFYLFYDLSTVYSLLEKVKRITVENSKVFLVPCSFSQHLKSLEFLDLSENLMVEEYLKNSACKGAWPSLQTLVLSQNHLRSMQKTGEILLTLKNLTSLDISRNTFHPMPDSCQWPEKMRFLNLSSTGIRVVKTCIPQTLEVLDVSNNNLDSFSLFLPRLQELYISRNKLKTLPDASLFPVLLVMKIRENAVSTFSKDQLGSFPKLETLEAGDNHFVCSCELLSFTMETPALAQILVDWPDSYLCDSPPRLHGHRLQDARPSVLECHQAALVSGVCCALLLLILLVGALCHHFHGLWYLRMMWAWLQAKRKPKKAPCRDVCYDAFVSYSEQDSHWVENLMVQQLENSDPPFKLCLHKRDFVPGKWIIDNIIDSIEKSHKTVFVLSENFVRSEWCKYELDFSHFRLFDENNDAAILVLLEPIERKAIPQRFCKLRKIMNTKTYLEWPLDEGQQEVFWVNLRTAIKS
T2 sequence (Q9Y2C9 32-796 partner): as the sequence (Q9Y2C9 32-796 partner) above
Experimental: as §1, §2, §3

[5] = test system: HEK-Blue Null2 cells; experiment: TLR- control cell line HEK-Blue Null2 (control for mouse TLR2); type: cell-based
Experimental: as §3

Row | SMILES | Average optical density (650 nm) ([1]; 0.12 pg/mL) | optical density (650 nm) ([1]; 0.12 pg/mL) | Average optical density (650 nm) ([1]; 0.49 pg/mL) | optical density (650 nm) ([1]; 0.49 pg/mL) | Average optical density (650 nm) ([1]; 1.95 pg/mL) | optical density (650 nm) ([1]; 1.95 pg/mL) | Average optical density (650 nm) ([1]; 7.81 pg/mL) | optical density (650 nm) ([1]; 7.81 pg/mL) | Average optical density (650 nm) ([1]; 31.25 pg/mL) | optical density (650 nm) ([1]; 31.25 pg/mL) | Average optical density (650 nm) ([1]; 125 pg/mL) | optical density (650 nm) ([1]; 125 pg/mL) | Average optical density (650 nm) ([1]; 500 pg/mL) | optical density (650 nm) ([1]; 500 pg/mL) | stimulatory / agonist activity for hTLR2 (in words) [1] | fold induction at 120 fg/mL ([1]; 0.12 pg/mL) | fold induction at 490 fg/mL ([1]; 0.49 pg/mL) | fold induction at 1.95 pg/mL ([1]; 1.95 pg/mL) | fold induction at 7.81 pg/mL ([1]; 7.81 pg/mL) | fold induction at 31.25 pg/mL ([1]; 31.25 pg/mL) | other results
1 | CCCCCCCCCCCCCC[C@H](C)C(=O)OCC[C@H](CSC[C@H](N)C(=O)N[C@@H](CO)C(=O)NCCOCCOCCOCCOCCOCCOCCOCCOCCOCCOCCOCCOCCOCCOCCOCCOCCOCCOCCOCCOCCOCCOCCOCCOCCOCCOCCOCCOCCC(=O)NCC(N)=O)OC(=O)[C@@H](C)CCCCCCCCCCCCCC [Compound B16] | 0.666 | 0.688 and 0.591 and 0.718 | 1.099 | 1.080 and 1.097 and 1.121 | 1.521 | 1.478 and 1.513 and 1.573 | 1.978 | 1.903 and 1.897 and 2.133 | 2.252 | 2.093 and 2.297 and 2.367 | 2.540 | 2.531 and 2.544 and 2.545 | 2.475 | 2.466 and 2.488 and 2.472 | stimulatory activity | 9.2 | 15.3 | 21.1 | 27.5 | 31.3 | fold induction at 0.000125 µg/mL ([1]; 125 pg/mL): 35.3; fold induction at 0.0005 µg/mL ([1]; 500 pg/mL): 34.4; pEC50 [1]: 9.30; stability under accelerated storage conditions (in words) [2]: excellent stabilities; stimulatory response in HEK-Blue Null1 (human) cells (in words) [3]: not observed; stimulatory / agonist activity for mTLR2 (in words) [4]: stimulatory activity; stimulatory response in HEK-Blue Null2 (mouse) cells (in words) [5]: not observed
2 | CCCCCCCCCCCCCC[C@@H](C)C(=O)OCC[C@H](CSC[C@H](N)C(=O)N[C@@H](CO)C(=O)NCCOCCOCCOCCOCCOCCOCCOCCOCCOCCOCCOCCOCCOCCOCCOCCOCCOCCOCCOCCOCCOCCOCCOCCOCCOCCOCCOCCOCCC(=O)NCC(N)=O)OC(=O)[C@H](C)CCCCCCCCCCCCCC [Compound B14] | 0.823 | 0.826 and 0.869 and 0.774 | 1.342 | 1.256 and 1.364 and 1.406 | 2.018 | 1.994 and 2.061 and 2.000 | 2.562 | 2.569 and 2.545 and 2.571 | 2.744 | 2.820 and 2.720 and 2.691 | 2.814 | 2.928 and 2.800 and 2.713 | 2.759 | 2.722 and 2.765 and 2.791 | stimulatory activity | 18.7 | 25.5 | 28 | 33 | 33.7 | fold induction at 0.000125 µg/mL ([1]; 125 pg/mL): 35.2; fold induction at 0.0005 µg/mL ([1]; 500 pg/mL): 33.9; pEC50 [1]: 9.58; stability under accelerated storage conditions (in words) [2]: excellent stabilities; stimulatory response in HEK-Blue Null1 (human) cells (in words) [3]: not observed; stimulatory / agonist activity for mTLR2 (in words) [4]: stimulatory activity; stimulatory response in HEK-Blue Null2 (mouse) cells (in words) [5]: not observed
